From article PMC4363603, “Inhibitory Effects of Chemical Compounds Isolated from the Rhizome of Smilax glabra on Nitric Oxide and Tumor Necrosis Factor-α Production in Lipopolysaccharide-Induced RAW264.7 Cell” (Evidence-based Complementary and Alternative Medicine : eCAM, 2015)

Assays:
Format in all cases: cell-based, mouse
RAW264.7 cells = assay: MTT cell viability (cytotoxicity) assay; conditions: 24 h incubation, concentration inhibiting 10% of cell proliferation, improved Karber methodology, defined as highest noncytotoxic concentration
Procedure: (§1) The mouse macrophage-derived RAW264.7 cell line was purchased from Sun Yat-Sen University, Guangzhou, China, and maintained at 37°C in a humidified atmosphere containing 5% CO2 in Dulbecco's modified eagle medium (DMEM) supplemented with 10% heat-inactivated fetal bovine serum (FBS), penicillin (100 U/mL), and streptomycin (100 μg/mL). Cells in exponential growth phase were used for experiments.
The cytotoxicity of the isolated compounds toward RAW264.7 was evaluated by a conventional MTT assay as reported previously. RAW264.7 cells (1 × 10^5 cells/well) were inoculated to 96-well plates and incubated for 12 h and then treated with different concentrations of compounds. After additional 24 h incubation, 10 μL of MTT solution ([…]) was added to each well, and the plate was incubated for another 4 h. The medium was discarded and 150 μL of dimethyl sulfoxide (DMSO) was added to each well, solubilizing formazan. After 15 min incubation, absorbance at 570 nm was read using a microplate reader. The percent viability was calculated using the following formula: (1) Cell viability%=[…].
The anti-inflammatory activities of the isolates were tested in vitro for inhibiting the NO and TNF-α production in LPS-induced RAW264.7 cells. Firstly, the cytotoxicity of these compounds cells on the proliferation of RAW264.7 cells was measured by MTT assay. The IC10 value of each compound (Table 1), at which 10% of cells proliferation was inhibited, was calculated with an improved Karber methodology and defined as the highest noncytotoxic concentration. While the dose is ≤IC10, the effect of the isolated compound on RAW264.7 cells could be neglected. In the following experiments, the concentrations of each compound were set at [IC10] × 1, [IC10] × 10^−1, and [IC10] × 10^−2 levels.

[1] = test system: NO production in LPS-induced RAW264.7 cells; assay: Nitric oxide production in LPS-induced RAW264.7 cells (Griess assay); conditions: for inhibitory effect on LPS-induced NO production (in words): compounds at [IC10] × 1, × 10^−1, × 10^−2
Procedure: as §1
Nitrite accumulation, as an indicator of NO production in the culture medium, was measured with the Griess reagent as reported previously. RAW264.7 cells were plated into 96-well plate at a density of 3 × 10^6 cells/mL. After 12 h incubation, cells were stimulated by LPS (100 ng/mL) with or without samples for 24 h. Subsequently, the supernatant (100 μL) was harvested and mixed with an equal volume of Griess reagent (0.1% N-(1-naphthyl) ethylenediamine dihydrochloride, 1% sulfanilamide, and 2.5% H3PO4) and stood for 15 min at room temperature in the dark. NO production was determined by measuring absorbance at 540 nm and was converted to nitrite concentration by reference to a standard curve generated with sodium nitrite.
Figure 1 Effects of ethanol extract of S. glabra (ESG) and its four subfractions (ESG-1, ESG-2, ESG-3, and ESG-4) on RAW264.7 cells viability and LPS-induced NO production. Cells viability (a) was tested by MTT assay; higher value of optical density at 490 nm means higher cell viability. Nitrite accumulated in cell culture supernatants was determined by Griess assay as an index for NO release (b). Cells were treated with LPS (1 μg/mL) for 24 h in the absence or presence of samples (1.6, 8.0, 40, and 200.0 μg/mL). The data were presented as mean ± S.D. (n = 5). Dexamethasone (DMS) was employed as a positive control. # and ###, respectively, mean P < 0.05 and P < 0.001 compared with control group. ∗, ∗∗, and ∗∗∗, respectively, mean P < 0.05, P < 0.01, and P < 0.001 compared with group treated with LPS alone.
(§2) Figure 4 The inhibitory effects of the isolated compounds on NO (a) and TNF-α (b) productions in LPS-induced RAW264.7 cells. Cells were seeded into 24-well plates and incubated for 12 h and then treated with or without different concentrations of compounds for 24 h (for NO) or […] (for TNF-α). The culture supernatant was analyzed for nitrite and TNF-α production. Results shown are representative of three separate experiments.

[2] = test system: TNF-α production in LPS-induced RAW264.7 cells; assay: TNF-α production in LPS-induced RAW264.7 cells (ELISA); conditions: for IC50: Mus musculus, LPS-induced RAW264.7 cells; for inhibitory effect on LPS-induced TNF-α production (in words): RAW264.7 cells, compounds at [IC10] × 1, × 10^−1, × 10^−2
Procedure: as §1
RAW264.7 cells (3 × 10^6 cells/mL) were seeded onto 24-well culture plate and incubated for 12 h. The cells were then pretreated with various concentrations of the isolated compounds for 2 h before stimulation with LPS (100 ng/mL) with or without samples for 12 h. Supernatants were then collected and the TNF-α concentrations in the medium were determined using commercially available ESISA kits according to the manufacturer's instructions as described in previous study.
as §2

IC50 [2] [µM] | SMILES | IC10 values (RAW264.7 cells) [µM] | inhibitory effect on LPS-induced NO production (in words) [1] | inhibitory effect on LPS-induced TNF-α production (in words) [2] | also measured
< 2.3 | COc1cc([C@H]2OC[C@H]3[C@@H]2CO[C@@H]3c2cc(OC)c(O)c(OC)c2)cc(OC)c1O [Comp. 1, syringaresinol] | 23.9 ± 1.8 | moderate suppression effects | high inhibitory effects | –
– | COc1cc(O)cc2c1C(=O)O[C@@H](C)CCCCCCC2 [Comp. 2, lasiodiplodin] | 147.9 ± 15.4 | moderate suppression effects | – | –
– | CC1CCCCCCCc2cc(O)cc(O)c2C(=O)O1 (centres unmarked) [Comp. 3, de-O-methyllasiodiplodin] | 154.3 ± 20.5 | moderate suppression effects | – | –
– | COc1cc(C(=O)O)cc(OC)c1O [Comp. 4, syringic acid] | 5.1 ± 4.2 | significant inhibitory effects | – | inhibition at 0.5 µM ([1]; Mus musculus, compound at 0.5 μM): ~19%; inhibition at 5.1 µM ([1]; Mus musculus, compound at 5.1 μM): ~25%
< 16.6 | COc1cc(C(O)C(CO)C(CO)C(O)c2cc(OC)c(O)c(OC)c2)cc(OC)c1O (centres unmarked) [Comp. 5, 1,4-bis(4-hydroxy-3,5-dimethoxyphenyl)-2,3-bis(hydroxymethyl)-1,4-butanediol] | 166.0 ± 9.7 | moderate suppression effects | high inhibitory effects | –
– | COc1cc(C2c3c(cc(OC)c(O)c3OC)CC(CO)C2CO)cc(OC)c1O (centres unmarked) [Comp. 6, lyoniresinol] | 238.1 ± 31.6 | lowest inhibitory effects | – | inhibition at 238.1 µM ([1]; Mus musculus, compound at level of IC10, 238.1 μM): 32.7%
< 4.4 | Oc1ccc(/C=C/c2cc(O)cc(O)c2)cc1 [Comp. 7, trans-resveratrol] | 4.4 ± 5.7 | significant inhibitory effects | high inhibitory effects | inhibition at 0.4 µM ([1]; Mus musculus, compound at 0.4 μM): ~32%; inhibition at 4.4 µM ([1]; Mus musculus, compound at 4.4 μM): ~48%
– | COC(=O)/C=C/c1ccc(O)c(O)c1 [Comp. 8, trans-caffeic acid methyl ester] | 5.2 ± 3.2 | – | – | –
– | O=C1c2c(O)cc(O)cc2O[C@H](c2ccc(O)cc2)[C@H]1O [Comp. 9, dihydrokaempferol] | 139.4 ± 10.3 | lowest inhibitory effects | – | inhibition at 139.4 µM ([1]; Mus musculus, compound at level of IC10, 139.4 μM): 21.3%
